Measured values taken from patent US20140024662A1, “COMPOUNDS, SCREENS, AND METHODS OF TREATMENT” (Shanghai Institute of Organic Chemistry, priority 2006, published 2014).
Entries after “also recorded” stand apart in the source; their conditions may differ. Read-outs that look alike come from different tables or passages of the source.

Tested on: FADD-deficient Jurkat cells
Assay: necroptosis assay: FADD-deficient Jurkat cells treated with TNFα, cell viability
Assay type: cell-based, human
Details: for activity in the necroptosis assay, in words / Max Prot: FADD-deficient Jurkat cells treated with TNFα; for Max Prot: max viability obtained in the presence of a compound; call rule not given here
Source text: Herein we describe the structure activity analysis of Nec-5 analogs.

[1] = effective concentration for half-maximum response, inhibition of necroptosis in FADD-deficient Jurkat cells treated with TNFα, read-out: EC50
[2] = effective concentration for half-maximum response, inhibition of necroptosis in FADD-deficient Jurkat cells treated with TNFα

Compound	activity in the necroptosis assay, in words	Max Prot	EC50 [1]	EC50 [2]	also measured
COc1ccc(-n2c(SCC#N)nc3sc4c(c3c2=O)CCCC4)cc1 [Compound 1, 3-p-methoxyphenyl-5,6-tetra-methylenothieno-[2,3-d]-pyrimidin-4-one-2-mercaptoethylcyanide]	prevents the death	100%			EC50 (Homo sapiens, Jurkat): 0.24 µM
COc1ccc(-n2c(SC)nc3sc4c(c3c2=O)CCCC4)cc1 [Compound 6]	reserves its activity to a significant extent	71%	0.24 µM		
CCSc1nc2sc3c(c2c(=O)n1-c1ccc(OC)cc1)CCCC3 [Compound 7]				inactive	
CCCSc1nc2sc3c(c2c(=O)n1-c1ccc(OC)cc1)CCCC3 [Compound 8]				inactive	
CCCCSc1nc2sc3c(c2c(=O)n1-c1ccc(OC)cc1)CCCC3 [Compound 9]				inactive	
CCCCCSc1nc2sc3c(c2c(=O)n1-c1ccc(OC)cc1)CCCC3 [Compound 10]				inactive	
CCCCCCSc1nc2sc3c(c2c(=O)n1-c1ccc(OC)cc1)CCCC3 [Compound 11]				inactive	
C=CCSc1nc2sc3c(c2c(=O)n1-c1ccc(OC)cc1)CCCC3 [Compound 12]				inactive	
C#CCSc1nc2sc3c(c2c(=O)n1-c1ccc(OC)cc1)CCCC3 [Compound 13]	exhibited some activity	80.7%	6.08 µM		
COc1ccc(-n2c(SCc3ccccc3)nc3sc4c(c3c2=O)CCCC4)cc1 [Compound 14]	completely destroyed the activity			inactive	
COc1ccc(-n2c(SCc3ccc(C)cc3)nc3sc4c(c3c2=O)CCCC4)cc1 [Compound 15]				inactive	
COc1ccc(CSc2nc3sc4c(c3c(=O)n2-c2ccc(OC)cc2)CCCC4)cc1 [Compound 16]				inactive	
COc1ccc(-n2c(SCc3ccc([N+](=O)[O-])cc3)nc3sc4c(c3c2=O)CCCC4)cc1 [Compound 17]				inactive	
COc1ccc(-n2c(SCC(C)=O)nc3sc4c(c3c2=O)CCCC4)cc1 [Compound 18]				inactive	
COC(=O)CSc1nc2sc3c(c2c(=O)n1-c1ccc(OC)cc1)CCCC3 [Compound 19]	completely destroyed the activity			inactive	
COc1ccc(-n2c(SCC(N)=O)nc3sc4c(c3c2=O)CCCC4)cc1 [Compound 20]				inactive	
COc1ccc(-n2c(SC(C)=O)nc3sc4c(c3c2=O)CCCC4)cc1 [Compound 21]				inactive	
CCCC(=O)Sc1nc2sc3c(c2c(=O)n1-c1ccc(OC)cc1)CCCC3 [Compound 22]				inactive	
COc1ccc(-n2c(SC(=O)c3ccccc3)nc3sc4c(c3c2=O)CCCC4)cc1 [Compound 23]				inactive	
COc1ccc(-n2c(SCCC#N)nc3sc4c(c3c2=O)CCCC4)cc1 [Compound 24]	retained some activity	70%	5.28 µM		
COc1ccc(-n2c(SCCl)nc3sc4c(c3c2=O)CCCC4)cc1 [Compound 25]	exhibited some activity	85%	2.22 µM		

Compound	activity in the necroptosis assay, in words	Max Prot	EC50 [1]	EC50 [2]	also measured
COc1ccc(-n2c(SC[N+](=O)[O-])nc3sc4c(c3c2=O)CCCC4)cc1 [Compound 26]	completely destroyed the activity			inactive	
COc1ccc(-n2c(SCC(=O)Nc3ccccc3C(F)(F)F)nc3sc4c(c3c2=O)CCCC4)cc1 [Compound 27]				inactive	
COc1ccc(-n2c(SCC(C)O)nc3sc4c(c3c2=O)CCCC4)cc1 (centres unmarked) [Compound 28]				inactive	
COc1ccc(-n2c(SCC(=O)O)nc3sc4c(c3c2=O)CCCC4)cc1 [Compound 29]				inactive	
COc1ccc(-n2c([S+](C)[O-])nc3sc4c(c3c2=O)CCCC4)cc1 (centres unmarked) [Compound 30]	complete loss of activity			inactive	
COc1ccc(-n2c(S(C)(=O)=O)nc3sc4c(c3c2=O)CCCC4)cc1 [Compound 31]	complete loss of activity			inactive	
N#CCSc1nc2sc3c(c2c(=O)n1-c1ccccc1)CCCC3 [Compound 32]	inactive			inactive	
COc1ccccc1-n1c(SCC#N)nc2sc3c(c2c1=O)CCCC3 [Compound 33]		51.2%	17.8 µM		
COc1cccc(-n2c(SCC#N)nc3sc4c(c3c2=O)CCCC4)c1 [Compound 34]		87.7%	1.46 µM		
CCOc1ccc(-n2c(SCC#N)nc3sc4c(c3c2=O)CCCC4)cc1 [Compound 35]	retained some activity; also recorded: showed significant higher activity compared to compound (154)	83.8%	0.55 µM		
N#CCSc1nc2sc3c(c2c(=O)n1-c1ccc(OCc2ccccc2)cc1)CCCC3 [Compound 36]				inactive	
Cc1ccccc1-n1c(SCC#N)nc2sc3c(c2c1=O)CCCC3 [Compound 37]				inactive	
Cc1ccc(-n2c(SCC#N)nc3sc4c(c3c2=O)CCCC4)cc1 [Compound 38]	retained some activity	48.6%	1.8 µM		
N#CCSc1nc2sc3c(c2c(=O)n1-c1ccc(F)cc1)CCCC3 [Compound 39]	retained significant activity; also recorded: showed substantial activity; also recorded: decreased activity	85.1%	0.24 µM		
N#CCSc1nc2sc3c(c2c(=O)n1-c1cccc(Cl)c1)CCCC3 [Compound 40]		66.9%	5.1 µM		
N#CCSc1nc2sc3c(c2c(=O)n1-c1ccc(Cl)cc1)CCCC3 [Compound 41]	activity significantly decreased	55.0%	8.5 µM		
N#CCSc1nc2sc3c(c2c(=O)n1-c1ccc(Br)cc1)CCCC3 [Compound 42]	activity significantly decreased			inactive	
Cc1ccc(-n2c(SCC#N)nc3sc4c(c3c2=O)CCCC4)cc1C [Compound 43]		45.0%	16.7 µM		
N#CCSc1nc2sc3c(c2c(=O)n1-c1ccc(Cl)c(Cl)c1)CCCC3 [Compound 44]		39.0%	5.7 µM		
N#CCSc1nc2sc3c(c2c(=O)n1-c1ccc(F)c(F)c1)CCCC3 [Compound 45]				inactive	
COc1ccc(-n2c(SCC#N)nc3sc4c(c3c2=O)CCCC4)c(OC)c1 [Compound 46]	eliminated activity			inactive	

Compound	activity in the necroptosis assay, in words	Max Prot	EC50 [1]	EC50 [2]	also measured
COc1ccc(-n2c(SCC#N)nc3sc4c(c3c2=O)CCCC4)cc1OC [Compound 47]		57.0%	5.7 µM		
N#CCCSc1nc2sc3c(c2c(=O)n1-c1ccc2c(c1)OCO2)CCCC3 [Compound 48, 3-(3′,4′)-methylene-dioxyphenyl-5,6-tetramethylenothieno[2,3-d]pyrimidin-4-one-2-mercaptoethylcyanide]	showed good activity; also recorded: showed substantial activity; also recorded: showed significant activity	100%	0.89 µM		
CSc1ccc(-n2c(SCC#N)nc3sc4c(c3c2=O)CCCC4)cc1 [Compound 49]		70.0%	2.33 µM		
Cc1cc(Cl)ccc1-n1c(SCC#N)nc2sc3c(c2c1=O)CCCC3 [Compound 50]				inactive	
N#CCSc1nc2sc3c(c2c(=O)n1-c1ccc(OC(F)(F)F)cc1)CCCC3 [Compound 51]	loss of activity			inactive	
CSc1nc2sc3c(c2c(=O)n1-c1ccc(OCc2ccccc2)cc1)CCCC3 [Compound 52]				inactive	
CSc1nc2sc3c(c2c(=O)n1-c1ccc(F)cc1)CCCC3 [Compound 53]	showed some activity	61.2%	1.57 µM		
CSc1nc2sc3c(c2c(=O)n1-c1ccc(Br)cc1)CCCC3 [Compound 54]				inactive	
CSc1nc2sc3c(c2c(=O)n1-c1ccc(C)c(C)c1)CCCC3 [Compound 55]		38.0%	16.7 µM		
CSc1nc2sc3c(c2c(=O)n1-c1ccc(Cl)c(Cl)c1)CCCC3 [Compound 56]				inactive	
COc1ccc(-n2c(SC)nc3sc4c(c3c2=O)CCCC4)c(OC)c1 [Compound 57]				inactive	
COc1ccc(-n2c(SC)nc3sc4c(c3c2=O)CCCC4)cc1OC [Compound 58]	showed some activity	54.5%	16.7 µM		
CSc1nc2sc3c(c2c(=O)n1-c1ccc2c(c1)OCO2)CCCC3 [Compound 59]				inactive	
CSc1cccc(-n2c(SC)nc3sc4c(c3c2=O)CCCC4)c1 [Compound 60]				inactive	
CSc1nc2sc3c(c2c(=O)n1-c1ccc(Cl)cc1C)CCCC3 [Compound 61]				inactive	
CSc1nc2sc3c(c2c(=O)n1-c1ccc(OC(F)(F)F)cc1)CCCC3 [Compound 62]				inactive	
COc1ccc(-n2c(SCC#N)nc3sc(C)cc3c2=O)cc1 [Compound 64]				inactive	
CCc1cc2c(=O)n(-c3ccc(OC)cc3)c(SCC#N)nc2s1 [Compound 65]				inactive	
COc1ccc(-n2c(SCC#N)nc3scc(C)c3c2=O)cc1 [Compound 66]				inactive	
COc1ccc(-n2c(SCC#N)nc3sc(C)c(C)c3c2=O)cc1 [Compound 67]	a high degree of activity is retained; also recorded: showed substantial activity; also recorded: showed significant higher activity compared to compound (154)	100%	0.45 µM		
CCc1sc2nc(SCC#N)n(-c3ccc(OC)cc3)c(=O)c2c1C [Compound 68]		86.8%	5.26 µM		
